Values joined by “and” are separate entries in the source; they are usually repeats but may differ in a detail not shown here. Identical values can stand only once.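 All cell lines were grown in 96-well plates and treated with compound for 48 hours. Here, GI50 denotes the concentration required for 50% inhibition of growth. TGI: total growth inhibition.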
Assays:
Assay in all cases: inhibition of tumour cell growth, NCI panel, 48 h
DU-145 prostate = test system: DU-145 prostate
SF-539 CNS = test system: SF-539 CNS
NCI-H460 lung = test system: NCI-H460 lung
SK-OV-3 ovarian = test system: SK-OV-3 ovarian
SK-MEL-2 melanoma = test system: SK-MEL-2 melanoma
NCI-H522 lung = test system: NCI-H522 lung
SK-MEL-28 melanoma = test system: SK-MEL-28 melanoma
UO-31 renal = test system: UO-31 renal
SF-268 CNS = test system: SF-268 CNS
HS 578T breast = test system: HS 578T breast

Compound	GI50 (DU-145 prostate)	TGI (DU-145 prostate)	GI50 (SF-539 CNS)	TGI (SF-539 CNS)	GI50 (NCI-H460 lung)	TGI (NCI-H460 lung)	GI50 (SK-OV-3 ovarian)	TGI (SK-OV-3 ovarian)	GI50 (SK-MEL-2 melanoma)	TGI (SK-MEL-2 melanoma)	GI50 (NCI-H522 lung)	TGI (NCI-H522 lung)	GI50 (SK-MEL-28 melanoma)	TGI (SK-MEL-28 melanoma)	GI50 (UO-31 renal)	TGI (UO-31 renal)	GI50 (SF-268 CNS)	TGI (SF-268 CNS)	GI50 (HS 578T breast)	TGI (HS 578T breast)
CCCCC(=O)N(c1ccc(Nc2c3ccccc3nc3cc([N+](=O)[O-])ccc23)cc1)S(C)(=O)=O	1.67 µM	74 µM	5.23 µM	> 61.9 µM	0.381 µM	12.8 µM	27 µM	> 100 µM	23.3 µM	62.9 µM	3.93 µM	16 µM	14.5 µM	36.6 µM	3.61 µM	45.3 µM	6.58 µM	> 77.7 µM	6.15 µM	48.3 µM
O=C1C=C(NCCO)c2nccc3c2c1nc1ccccc13	24.8 µM	> 100 µM	22.9 µM	73.1 µM	6.04 µM	40.9 µM	80.1 µM	> 100 µM	27.7 µM	88.2 µM	22.5 µM	85 µM	41.4 µM	> 100 µM	24.6 µM	> 100 µM	26.4 µM	> 100 µM	25.5 µM	> 100 µM
C[C@]12CC[C@H](O[C@@H]3O[C@H](CO[C@@H]4O[C@H](CO)[C@@H](O)[C@H](O)[C@H]4O)[C@@H](O)[C@H](O)[C@H]3O)C[C@@H]1CC[C@@H]1[C@@H]2CC[C@]2(C)[C@@H](C3=CC(=O)OC3)CC[C@]12O	–	26.4 µM	–	33.2 µM	–	> 44.9 µM	–	> 72.6 µM	–	> 94 µM	–	46.7 µM	–	> 100 µM	–	> 66.5 µM	–	29.5 µM	–	> 100 µM
N#C/C(=C\c1cc(O)c(O)c(O)c1)C(N)=O	–	> 100 µM	–	> 100 µM	–	> 100 µM	–	> 100 µM	–	> 100 µM	–	> 100 µM	–	> 100 µM	–	> 100 µM	–	> 100 µM	–	> 100 µM
c1ccc(-c2[nH]ncc2-c2ccnc(-c3ccc(OCCN4CCOCC4)cc3)c2)nc1	> 25 µM	> 25 µM	> 25 µM	> 25 µM	> 25 µM	> 25 µM	> 25 µM	> 25 µM	> 25 µM	> 25 µM	> 25 µM	> 25 µM	> 25 µM	> 25 µM	24.3 µM	> 25 µM	> 25 µM	> 25 µM	> 25 µM	> 25 µM
Cc1cc(O)ccc1C1=NN(c2ccc(S(N)(=O)=O)cc2)C(=O)CC1	15.1 µM and 46.3 µM	50 µM and > 100 µM	6.66 µM and 19.4 µM	50 µM and > 100 µM	2.19 µM and 6.16 µM	50 µM and > 100 µM	10.8 µM and 51.7 µM	50 µM and > 100 µM	16.8 µM and 10.4 µM	50 µM and 77.7 µM	1.12 µM and 2.48 µM	33.5 µM and > 100 µM	25.7 µM and > 100 µM	50 µM and > 100 µM	18.1 µM and 35.1 µM	50 µM and > 100 µM	10.1 µM and 25.5 µM	50 µM and > 100 µM	6.64 µM and 60.5 µM	43.9 µM and > 100 µM
COc1cccc2c1C(=O)c1c(O)c3c(c(O)c1C2=O)C[C@@](O)(C(=O)CO)CC3OC1CC(N)C(OC2CCCCO2)C(C)O1 (some centres not stated)	–	0.0489 µM	0.00352 µM	–	–	1.08 µM and 5.09 µM	0.0465 µM	2.09 µM and 12 µM	–	4.1 µM	0.0409 µM	0.282 µM and 1.72 µM	0.113 µM	–	–	5.46 µM	0.00705 µM	–	–	1.11 µM
Cc1ccc(N)cc1[As]=[As]c1cc(N)ccc1C (configuration not stated)	1.81 µM	3.23 µM	1.39 µM	2.76 µM	3.08 µM	12.2 µM	3.59 µM	9.43 µM	1.97 µM	3.54 µM	0.122 µM	0.268 µM	1.39 µM	2.83 µM	1.57 µM	3.03 µM	1.56 µM	3.02 µM	2.81 µM	> 100 µM
CN(C)c1ccc(/C=C(\C#N)c2cc3ccccc3[nH]2)cc1	3.41 µM	35.4 µM	1.97 µM	35.1 µM	0.476 µM	> 100 µM	2.28 µM	> 100 µM	0.454 µM	> 100 µM	0.542 µM	> 100 µM	2.63 µM	> 100 µM	2.01 µM	> 100 µM	2.52 µM	> 100 µM	1.63 µM	9.49 µM
CCN1CCN(c2nc(C)cc(NCc3cc(Nc4ccnc5cc(Cl)ccc45)ccc3F)n2)CC1	3.23 µM	12.1 µM	1.76 µM	3.37 µM	1.56 µM	3.67 µM	4.14 µM	15 µM	2.12 µM	4.1 µM	3.02 µM	7.77 µM	1.7 µM	3.37 µM	1.31 µM	2.99 µM	1.89 µM	5.79 µM	1.72 µM	5.29 µM
COC(=O)[C@H](Cc1cn(C)cn1)NC(=O)[C@H](CC(=O)OCc1ccccc1)NC(=O)Nc1cc(C(F)(F)F)cc(C(F)(F)F)c1	6.18 µM	19.3 µM	12.4 µM	25.6 µM	13.4 µM	28.7 µM	9.07 µM	21.4 µM	3.89 µM	12.6 µM	8.53 µM	21.4 µM	9.51 µM	21.6 µM	11.5 µM	24.2 µM	4.51 µM	18.1 µM	2.8 µM	8.09 µM
COc1cc(-c2nn(-c3ccc(NC(=O)Nc4cc(C(F)(F)F)cc(C(F)(F)F)c4)cc3)cc2-c2ccncc2)ccc1Cl	3.39 µM	11.2 µM	1.64 µM	3.71 µM	1.75 µM	3.88 µM	1.55 µM	3.09 µM	1.7 µM	3.43 µM	2.25 µM	5.99 µM	1.93 µM	3.74 µM	1.34 µM	3.22 µM	2.47 µM	7.3 µM	2.94 µM	> 100 µM
Oc1ccc2c(=S)cc(-c3ccc(Br)cc3)oc2c1O	2.67 µM	> 100 µM	1.98 µM	7.28 µM	0.973 µM	19 µM	2.6 µM	8.5 µM	2.27 µM	6.76 µM	1.16 µM	3.88 µM	2.94 µM	28.7 µM	1.02 µM	6.66 µM	2.18 µM	> 100 µM	6.69 µM	> 100 µM

— PubChem BioAssay (NCI)
